Key:
GABA receptor complex = conditions: Tarnawa et al. 1989; cited from earlier work
[1] = system: N-acetyltransferse NAT2 isozymes; assay: Previous clinical trial: N-acetylation of talampanel by NAT2; format: in vivo, human
Description: N-acetylation was identified as one metabolic pathway of talampanel, catalyzed by N-acetyltransferse NAT2 isozymes. A genetic polymorphism in the NAT2 gene affects the acetylation rate. […] The three common slow acetylator alleles identified are NAT2*5A, NAT2*6A and NAT2*7A. The NAT2*5 alleles have the greatest reductions in metabolic activation while NAT2*6 alleles have more moderate reductions and NAT2*7 alleles have the smallest, but yet significant, reductions. The frequency of NAT2 slow acetylators (about 2-10% in Asian, 60-70% in Caucasians, 30-40% in Africans) and NAT2 fast acetylators (about 40-60% in Asian, 3-15% in Caucasian, 10-25% in Africans) varies markedly with ethnicity.

motor neurons [2] = conditions: in vitro; cited from earlier work
mouse model of ALS = conditions: Van Damme et al. 2003; cited from earlier work
ALS = assay: Pilot study of talampanel in ALS, 50 mg t.i.d. vs placebo; format: in vivo, human; conditions: placebo −10.2, p=0.08, positive trend
Procedure: A pilot study of talampanel in ALS compared 50 mg t.i.d of talampanel to placebo. The study found a positive trend in the ALSFRS scores of talampanel treated relative to placebo (average score −7.1 vs. −10.2, p=0.08).

[3] = system: AMPA subtype of glutamate excitatory amino acid receptors; conditions: AMPA antagonist; cited from earlier work
subjects with ALS [4] = assay: Example 4: another clinical trial according to the procedure of Example 1; format: in vivo, human
Procedure: (§1) A subject is assessed for study eligibility at a screening visit (one to 4 weeks prior to baseline). Subjects who are found eligible to participate in the study are randomized in a 2:1:2 ratio into one of the following three treatment groups based on a randomization scheme with blocks stratified by center: • 1. 50 mg (25 mg capsule×2) talampanel t.i.d. (150 mg daily) • 2. 25 mg (12.5 mg capsule×2) talampanel t.i.d. (75 mg daily) • 3. Placebo
(§2) After undergoing randomization subjects receive their first dose of study treatment on site. There are two possible escalation periods to reach maximal dose of 6 capsules per day, as follows: • Screening Period Up to 4 weeks but not less than 1 week. The period between screening visit and baseline visit. During this time period all relevant data for the assessment of subjects eligibility should be collected and reviewed i.e. lab results, ECG, medical history etc. • First Escalation Period: A period of 4 to 6 weeks, following screening period. This period starts at baseline visit, following randomization; • Second Escalation Period: A period of 2 weeks, this period starts at week 10 visit and ends at week 12 visit. • Maintenance Period: A time period of 46 to 48 weeks, following the first escalation period, starting after reaching maximal achieved dose in the first escalation period. During this period oral administration of talampanel 25 mg t.i.d., 50 mg t.i.d. (or maximal achieved dose) or matching oral placebo is maintained.
(§3) The first escalation period is a period of 4-6 weeks, following randomization. The dose escalation plan for the 25 mg and 50 mg t.i.d. dose levels, respectively, is as follows: • First week: from baseline visit to week 1 (telephone visit): Three capsules (37.5 mg or 75 mg daily) one each a.m., mid-day and p.m. dosing. • Second week: from week 1 (telephone visit) to week 2 (telephone visit): Four capsules (50 mg or 100 mg daily) one each a.m. & mid-day, two at p.m. dosing. • Third week: from week 2 (telephone visit) to week 3 (telephone visit): Five capsules (62.5 mg or 125 mg daily) two at a.m. one in mid-day and two at p.m. dosing. • Fourth week: from week 3 (telephone visit) to week 4 on site visit: Six capsules (75 mg or 150 mg daily) two at each a.m., mid-day and p.m. dosing.
(§4) At in-clinic visits the following are assessed: • Revised ALS Functional Rating Scale (ALSFRS-R) (screening, baseline, weeks 4-6, 12, 26, 40, 52/ET and unscheduled) • Slow VC (screening, baseline, weeks 4-6, 12, 26, 40, 52/ET and unscheduled) • Manual Muscle Testing (MMT) (baseline, weeks 12, 26, 40, 52/ET and unscheduled) • ALS-Specific Quality of life (ALSSQoL) scale (baseline, weeks 26, 52/ET) [US and Canada Only] • EuroQol-5 Dimensions (EQ-5D) health outcomes scale (baseline, weeks 4-6, 12, 26, 40 and 52/ET) • Health Care Resource Utilization Questionnaire for ALS (baseline, weeks 4-6, 12, 26, 40, 52/ET) • Caregiver burden questionnaire, Zarit Burden Interview (ZBI) [caregiver] (Baseline, weeks 12, 26, 40, 52/ET) • Laboratory (screening, baseline, weeks 4-6, 12, 26, 40, 52/ET and unscheduled) • ECG (screening, baseline (3 times), weeks 4-6, 12, 26, 40, 52/ET and unscheduled) • Physical examination (screening, baseline, weeks 4-6, 12, 26, 40 and 52/ET and unscheduled) • Vital signs and weights (screening, baseline, weeks 4-6, 12, 26, 40 and 52/ET and unscheduled) • Check of concomitant medications, AEs and compliance • Pharmacokinetics (PK): Safety Pharmacokinetics (PK) blood samples are taken after at least 3 days on the maximal achieved dose at end of first escalation period at week 4-6 (pre-dose, anytime in the range of 0.5-2 hours post-dose and anytime in the range of 2-4 hours post dose with at least 1 hour difference between the 2 post dose samples) and at week 12 (pre-dose, anytime in the range of 0.5-2 hours post-dose and anytime in the range of 2-4 hours post dose with at least 1 hour difference between the 2 post dose samples). […]

subjects with ALS [5] = assay: Example 3: another clinical trial according to the procedure of Example 1; format: in vivo, human
Procedure: as §1, §2, §3, §4

[6] = human, in vivo
Procedure: (§5) In this study, the daily dose is increased by 12.5 mg or 25 mg daily each week to reach 75 mg or 150 mg daily (25 mg t.i.d. or 50 mg t.i.d.) respectively, at the 4th to 6th week or at the 11th to 12th week if needed.

subjects with ALS [7] = assay: Example 2: another clinical trial according to the procedure of Example 1; format: in vivo, human
Procedure: as §1, §2, §3, §4

[8] = Prior clinical trials with talampanel: safety and tolerability; conditions: previous clinical trials
Procedure: as §5

motor neurons [9] = conditions: organotypic spinal cord slice model; cited from earlier work
ALS patients = conditions: cited from earlier work
[10] = 50 mg t.i.d., statistically significant
[11] = talampanel group, dose not stated, vs placebo

CC1=NN=C(c2ccc(N)cc2)c2cc3c(cc2C1)OCO3 [GYKI-52466]
1,4-benzodiazepine (diazepam-like) activity at the GABA receptor complex (GABA receptor complex): no classical 1,4-benzodiazepine (that is, “diazepam-like”) activity

CC(=O)Nc1ccc(C2=NN(C(C)=O)C(C)Cc3cc4c(cc32)OCO4)cc1 (stereo not drawn) [NAC talampanel]
measurable levels of NAC talampanel by acetylator status ([1]; human, in vivo): seen primarily in fast acetylator subjects, but not in slow acetylators

NS(=O)(=O)c1cccc2c1c([N+](=O)[O-])cc1nc(O)c(O)nc12 [NBQX]
kainate induced calcium entry into motor neurons (motor neurons [2]): blocked | prolonged survival in ALS mice (mouse model of ALS): 14 days

CC(=O)N1N=C(c2ccc(N)cc2)c2cc3c(cc2C[C@H]1C)OCO3 [talampanel]
N-acetylation dependence on NAT2 activity ([1]; metabolic pathway): highly dependent on NAT2 activity | ALSFRS scores, average score (ALS): −7.1 | potency relative to GYKI-52466 [3]: more potent | decrease in the slopes of ALSFRS-R as compared to placebo (subjects with ALS [4]; 25 mg t.i.d.): 30% | risk of either death, tracheostomy, or permanent assisted ventilation (subjects with ALS [4]; 25 mg t.i.d.): reduction | decrease in the change in ALSFRS-R from baseline to LOV in comparison to placebo (subjects with ALS [4]; 50 mg t.i.d.): 30% | risk of either death, tracheostomy, or permanent assisted ventilation (subjects with ALS [4]; 50 mg t.i.d.): decrease | adjusted mean change from baseline in MMT across visits (subjects with ALS [4]; 50 mg t.i.d. vs placebo): decrease | adjusted mean change from baseline in Slow VC across visits (subjects with ALS [4]; 50 mg t.i.d. vs placebo): decrease | slopes of MMT (subjects with ALS [4]; 50 mg t.i.d. vs placebo): decrease | slopes of Slow VC (subjects with ALS [4]; 50 mg t.i.d. vs placebo): decrease | decrease in the slopes of ALSFRS-R as compared to placebo (subjects with ALS [4]; [10]): 30% | change in MMT from baseline to LOV (subjects with ALS [4]; [11]): decrease | decrease in the slopes of ALSFRS-R as compared to placebo (subjects with ALS [5]; 25 mg t.i.d.): 25% | risk of either death, tracheostomy, or permanent assisted ventilation (subjects with ALS [5]; 25 mg t.i.d.): reduction | adjusted mean change from baseline in MMT across visits (subjects with ALS [5]; 50 mg t.i.d vs placebo): decrease | decrease in the change in ALSFRS-R from baseline to LOV in comparison to placebo (subjects with ALS [5]; 50 mg t.i.d.): 25% | risk of either death, tracheostomy, or permanent assisted ventilation (subjects with ALS [5]; 50 mg t.i.d.): decrease | adjusted mean change from baseline in Slow VC across visits (subjects with ALS [5]; 50 mg t.i.d. vs placebo): decrease | slopes of MMT (subjects with ALS [5]; 50 mg t.i.d. vs placebo): decrease | slopes of Slow VC (subjects with ALS [5]; 50 mg t.i.d. vs placebo): decrease | decrease in the slopes of ALSFRS-R as compared to placebo (subjects with ALS [5]; [10]): 25% | change in MMT from baseline to LOV (subjects with ALS [5]; [11]): decrease | safety and tolerability of the dose [6]: safe and tolerated | decrease in the slopes of ALSFRS-R as compared to placebo (subjects with ALS [7]; 25 mg t.i.d.): 20% | risk of either death, tracheostomy, or permanent assisted ventilation (subjects with ALS [7]; 25 mg t.i.d.): reduction | decrease in the change in ALSFRS-R from baseline to LOV in comparison to placebo (subjects with ALS [7]; 50 mg t.i.d.): 20% | risk of either death, tracheostomy, or permanent assisted ventilation (subjects with ALS [7]; 50 mg t.i.d.): decrease | adjusted mean change from baseline in MMT across visits (subjects with ALS [7]; 50 mg t.i.d. vs placebo): decrease | adjusted mean change from baseline in Slow VC across visits (subjects with ALS [7]; 50 mg t.i.d. vs placebo): decrease | slopes of MMT (subjects with ALS [7]; 50 mg t.i.d. vs placebo): decrease | slopes of Slow VC (subjects with ALS [7]; 50 mg t.i.d. vs placebo): decrease | decrease in the slopes of ALSFRS-R as compared to placebo (subjects with ALS [7]; [10]): 20% | change in MMT from baseline to LOV (subjects with ALS [7]; [11]): decrease | adverse events when the dose is gradually increased over time [8]: reduced

CC1(C)O[C@@H]2[C@@H](CO[C@@]3(COS(N)(=O)=O)OC(C)(C)O[C@@H]23)O1 [topiramate]
protection of motor neurons (motor neurons [9]): protected motor neurons | benefit in clinical trial in ALS patients (ALS patients; Cudkowicz et al. 2003): no benefit | adverse events in patients (ALS patients; including dramatic weight loss): significant adverse events
